In patent US12391675B2, “NLRP3 modulators” (INNATE TUMOR IMMUNITY, INC., priority 2019, dated 2025):

These compounds were tested against T1, NLRP3 (Homo sapiens, UniProt Q96P20) (assay: Measurement of IL-1β production in PMA-differentiated THP-1 cells (NLRP3 hIL1B EC50)).
T1 construct: host or cells: PMA-differentiated THP-1 cells
Format: cell-based
Method: Measurement of IL-1β Production in PMA-Differentiated THP-1 Cells
THP-1 cells were purchased from the American Type Culture Collection and sub-cultured according to instructions from the supplier. Prior to experiments, cells were cultured in RPMI 1640 containing 10% heat inactivated FBS, penicillin (100 units/ml) and streptomycin (100 μg/ml), and maintained in log phase prior to experimental setup. Prior to the experiment THP-1 were treated with PMA (Phorbol 12-myristate 13-acetate) (10 μg/ml) for 24 hours. The day of the experiment the media was removed and attaching cells were treated with trypsin for 2 minutes, cells were then collected, washed with PBS (phosphate buffer saline), spin down, resuspended in 2% heat inactivated FBS with RPMI at a concentration of 1×10^6 cells/ml, and 100 μl was plated in a 96 well plate. Compounds were dissolved in dimethyl sulfoxide (DMSO) and added to the culture medium to achieve desired concentration (e.g. 100, 30, 10, 3, 1, 0.3 or 0.1 μM). Cells were incubated with compounds for 4 hours. Cell free supernatant was collected and the production of IL-1β was evaluated by ELISA. A vehicle only control was run concurrently with each experiment. Final DMSO concentration was 1%.
Measurement of IL-1β Production in PMA-Differentiated THP-1 Cells (Alternative Procedure)
THP-1 cells were purchased from the American Type Culture Collection and sub-cultured according to instructions from the supplier. Prior to experiments, cells were cultured in RPMI 1640 containing 10% heat inactivated FBS, penicillin (100 units/ml), streptomycin (100 μg/ml), HEPES (10 mM) and sodium pyruvate (1 mM) and maintained in log phase prior to experimental setup. Prior to the experiment, THP-1 cells were treated with PMA (Phorbol 12-myristate 13-acetate) (20 μg/ml) overnight. The day of the experiment, the media was removed and attached cells were treated with trypsin for 2 minutes, cells were then collected, washed with PBS (phosphate buffer saline), pelleted by centrifugation and resuspended in 2% heat inactivated FBS with RPMI at a concentration of 50,000 cells/well in a 384 well plate. Cell free supernatant was collected and the production of IL-1β was evaluated by ELISA. Compounds were dissolved in dimethyl sulfoxide (DMSO) and added to the culture medium to achieve desired concentration (e.g. 100, 30, 10, 3, 1, 0.3 or 0.1 μM). Cells were incubated with compounds for 2 hours. A vehicle only control was run concurrently with each experiment. Final DMSO concentration was 1%.
Measurement of IL-1β Production—hTRF Protocol (Second Alternative Procedure)
Serial dilutions of compounds in DMSO were added to low volume 384 well plates at 100 nl/well using an ECHO 550 acoustic dispenser (Labcyte) to achieve final starting concentration of 10 μM in assay.
THP-1 cells in RPMI (Gibco, 11875) media with 10% FBS at a density of 1×10^6 cell/ml in a T175 flask were treated with a final concentration of phorbol 12-myristate 13-acetate (PMA) (Sigma, P1585) of 50 ng/ml overnight at 37° C. at 5% CO2 for differentiation. Cells were harvested the next day after rinsing well wth dPBS using 0.5% trypsin. A cell solution was prepared of 1×10^6 cells/ml for 50,000 cells in 50 μl/well in RPMI media with 2% FBS. Cells were plated using a multichannel pipette onto the compound dilutions in Greiner, 384 well, black clear bottom tissue culture treated plates (781090). The plates were incubated in 37° C. incubator at 5% CO2 for 2 hours.
After the 2 hour incubation, the cell plates were spun in the centrifuge for 5 minutes at 1200 rpm. Using the Felix (CyBio), 8 μl of the supernatant was transferred to 384 well, low volume, white proxy plates. (Perkin Elmer, 6008230). A human IL1beta hTRF kit was used to analyze the supernatant (CISBIO, 62HIL1BPEG). The kit instructions were followed for preparing the IL1Beta standard curve and then the antibodies from the kit were diluted 1:40 rather than 1:20 as kit instructed. […]

T1 sequence (Q96P20 whole entry): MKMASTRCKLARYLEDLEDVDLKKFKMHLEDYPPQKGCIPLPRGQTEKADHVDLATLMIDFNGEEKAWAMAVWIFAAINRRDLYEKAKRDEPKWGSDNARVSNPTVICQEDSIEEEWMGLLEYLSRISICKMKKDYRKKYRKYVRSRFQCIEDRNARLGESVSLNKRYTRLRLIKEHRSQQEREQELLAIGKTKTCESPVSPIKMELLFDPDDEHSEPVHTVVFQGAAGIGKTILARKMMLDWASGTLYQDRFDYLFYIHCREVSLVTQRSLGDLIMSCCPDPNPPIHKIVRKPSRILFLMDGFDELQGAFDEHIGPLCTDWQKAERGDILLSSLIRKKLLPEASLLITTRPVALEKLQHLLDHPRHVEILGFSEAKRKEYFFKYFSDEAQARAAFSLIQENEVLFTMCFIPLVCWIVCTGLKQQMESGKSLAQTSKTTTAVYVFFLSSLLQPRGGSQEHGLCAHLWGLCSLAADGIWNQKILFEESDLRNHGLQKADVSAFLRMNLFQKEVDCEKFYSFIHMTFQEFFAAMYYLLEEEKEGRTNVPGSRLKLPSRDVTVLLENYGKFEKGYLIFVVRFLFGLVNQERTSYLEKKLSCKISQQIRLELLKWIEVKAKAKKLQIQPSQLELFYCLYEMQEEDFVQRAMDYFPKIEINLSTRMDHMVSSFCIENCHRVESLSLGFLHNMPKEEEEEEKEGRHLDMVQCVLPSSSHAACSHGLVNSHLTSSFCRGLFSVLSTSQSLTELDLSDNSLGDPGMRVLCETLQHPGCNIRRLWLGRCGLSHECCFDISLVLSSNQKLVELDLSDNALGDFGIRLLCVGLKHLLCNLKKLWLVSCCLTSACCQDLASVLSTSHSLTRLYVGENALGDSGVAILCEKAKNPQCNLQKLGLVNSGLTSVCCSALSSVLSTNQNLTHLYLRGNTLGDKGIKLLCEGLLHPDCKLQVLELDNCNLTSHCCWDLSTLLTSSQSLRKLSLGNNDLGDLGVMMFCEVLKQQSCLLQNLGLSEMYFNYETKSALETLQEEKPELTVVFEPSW

| SMILES | EC50 [nM] |
| --- | --- |
| Nc1cc(N2C3CCC2COC3)c2ncc(-c3cc[nH]n3)cc2n1 [Example 24, 4-(3-oxa-8-azabicyclo[3.2.1]octan-8-yl)-7-(1H-pyrazol-3-yl)-1,5-naphthyridin-2-amine] | 890 |
| Nc1cc(N[C@H]2[C@@H]3CC[C@@H](C3)[C@H]2CO)c2ccc(-c3ccn[nH]3)cc2n1 (racemic) [Example 17, rac-((1R,2S,3R,4S)-3-((2-amino-7-(1H-pyrazol-5-yl)quinolin-4-yl)amino)bicyclo[2.2.1]heptan-2-yl)methanol] | 1670 |
| Nc1nc(N2C[C@H]3C[C@@H]2CO3)c2ccc(-c3cc[nH]n3)cc2n1 (single isomer, unassigned) [Example 10] | 1600 |
| CC(C)(C)OC(=O)N1CCC2(CC1)CC2Nc1nc(N)nc2cc(-c3cc[nH]n3)ccc12 (single isomer, unassigned) [Example 28B] | 780 |
| Nc1cc(N2CC3CCC(C2)O3)c2ccc(-c3ccn[nH]3)cc2n1 [Example 23] | 740 |
| Nc1nc(NC23CC(C2)C3)c2ccc(-c3cc[nH]n3)cc2n1 [Example 13] | 200 |
| Nc1cc(N[C@H]2C3CCC(C3)[C@H]2CO)c2ccc(-c3ccn[nH]3)cc2n1 (single isomer, unassigned) [Example 18] | 3000 |
| Nc1nc(NC2CC23CC3)c2ccc(-c3cc[nH]n3)cc2n1 (single isomer, unassigned) [Example 36B] | 130 |
| Nc1nc(N2C3CCC2COC3)c2ccc(-c3cc[nH]n3)cc2n1 [Example 12] | 640 |
| Nc1nc(NC23CC(CO)(C2)C3)c2ccc(-c3ccn[nH]3)cc2n1 [Example 7] | 200 |
| Nc1cc(N[C@H]2C[C@@H]3CC[C@H]2O3)c2ccc(-c3ccn[nH]3)cc2n1 (racemic) [Example 15, rac-N4-((1R,2S,4S)-7-oxabicyclo[2.2.1]heptan-2-yl)-7-(1H-pyrazol-5-yl)quinoline-2,4-diamine] | 250 |
| Nc1nc(NC23CC4CC(CC(O)(C4)C2)C3)c2ccc(-c3cc[nH]n3)cc2n1 [Example 11, (1s,3r,5R,7S)-3-((2-Amino-7-(1H-pyrazol-3-yl)quinazolin-4-yl)amino)adamantan-1-ol] | 2110 |
| Nc1cc(N[C@@H]2C[C@@H]3CC[C@H]2O3)c2ccc(-c3ccn[nH]3)cc2n1 (racemic) [Example 30, rac-N4-((1R,2R,4S)-7-oxabicyclo[2.2.1]heptan-2-yl)-7-(1H-pyrazol-5-yl)quinoline-2,4-diamine] | 650 |

Second part, the compound after the results:

| EC50 [nM] | SMILES |
| --- | --- |
| 500 | Nc1nc(N[C@@H]2C[C@@H]3CC[C@H]2O3)c2ccc(-c3ccn[nH]3)cc2n1 (racemic) [Example 29, rac-N4-((1R,2R,4S)-7-oxabicyclo[2.2.1]heptan-2-yl)-7-(1H-pyrazol-5-yl)quinazoline-2,4-diamine] |
| 220 | Nc1nc(N[C@H]2CC3CC2[C@@H](O)C3)c2ccc(-c3ccn[nH]3)cc2n1 (mixture of isomers) [Example 40, rac-(2S,6S)-6-((2-amino-7-(1H-pyrazol-5-yl)quinazolin-4-yl)amino)bicyclo[2.2.1]heptan-2-ol] |
| 810 | Nc1nc(NC2C3CCC(C3)C2CO)c2ccc(-c3ccn[nH]3)cc2n1 (centres unmarked) [Example 5] |
| 3000 | Nc1nc(N[C@H]2C[C@@H]3C[C@H]2[C@@H](O)C3)c2ccc(-c3ccn[nH]3)cc2n1 (single isomer, unassigned) [Example 45B] |
| 600 | Nc1nc(N[C@@H]2C[C@H]3C[C@@H](O)C[C@H]3C2)c2ccc(-c3ccn[nH]3)cc2n1 [Example 2, (2r,3aR,5r,6aS)-5-((2-amino-7-(1H-pyrazol-5-yl)quinazolin-4-yl)amino)octahydropentalen-2-ol] |
| 1000 | Nc1nc(NC2CC3(CC(O)C3)C2)c2ccc(-c3ccn[nH]3)cc2n1 (centres unmarked) [Example 3, 6-((2-amino-7-(1H-pyrazol-5-yl)quinazolin-4-yl)amino)spiro[3.3]heptan-2-ol] |
| 310 | Nc1nc(N[C@H]2[C@@H]3COC[C@@H]32)c2ccc(-c3ccn[nH]3)cc2n1 [Example 4] |
